Laboratory results: publication PMC9174720, “Evaluation of antioxidant and cytotoxic properties of phenolic N-acylhydrazones: structure–activity relationship” (Royal Society Open Science, 2022)
Where two headings read alike, the source gives them in different places.

Columns and labels:
[1] = DPPH radical scavenging assay; assay type: biochemical; details: for IC50: DPPH 0.05 mM in methanol, incubated 20 and 60 min, absorbance at 517 nm, mean ± s.d. of three measurements, read-out: IC50 for inactivation of DPPH free radical; for stoichiometric factor (SF): SF=[DPPH]/(2×IC50), good antioxidant if SF ≥ 2
Protocol: The antioxidant screening of all PheNAHs was performed using the 2,2-diphenyl-1-picrylhydrazyl (DPPH) method. The solution of DPPH radical in methanol (0.05 mM, 1 ml) was mixed with the tested compound (20 µl of different concentrations in dimethyl sulfoxide (DMSO) and 980 µl of methanol). The reaction mixture was incubated in the dark at room temperature for 20 and 60 min after which the absorbance of the sample was measured spectrophotometrically at 517 nm. All measurements were performed in triplicate. Methanol was used as a control solution, whereas quercetin and nordihydroguaiaretic acid (NDGA) were used as reference compounds. […] IC50 is defined as the minimal concentration of tested compound required for reaching 50% of a maximum scavenging capacity. The results were presented as mean values ± standard deviation (s.d.) of three independent measurements. The stoichiometric factor (SF) was calculated for all compounds using the equation [45, 46]:1 SF=[DPPH]/(2×IC50)

[2] = system: HCT-116; test: MTT cytotoxicity assay on HCT-116 cells; assay type: cell-based, human; details: for IC50: Homo sapiens, HCT-116 cell line, read-out: Growth inhibitory effects IC50; for selectivity index (SI): ratio of IC50 values of MRC-5 and HCT-116, values greater than 1 indicate selectivity toward cancer cell line; for cytotoxic effect in words (from IC50 values): MTT
Protocol: (§1) In this in vitro study, we investigated the influence of PheNAHs on two model systems: human colorectal carcinoma HCT-116 and human healthy fibroblast cell line MRC-5. Both cell lines of low passages were purchased from the European collection of authenticated cell cultures (ECACC) and were cultivated in Dulbecco's Modified Eagle Medium (DMEM) (Sigma, D5796) cell culture medium supplemented with 10% foetal bovine serum (Sigma, F4135-500 ML) and 1% penicillin/streptomycin (Sigma, P4333-100 ML) in 75 cm^2 culture flasks. The cells were maintained according to the standardized procedure in the incubator with humidified atmosphere supplemented with 5% CO2 at a physiological temperature of 37°C, and after a few passages and a confluence of about 80%, the cells were used in all in vitro experiments (Laboratory for Bioengineering protocol CB-003).
(§2) The ability of synthesized compounds to inhibit the growth of two different cell lines was estimated by a standardized 3-(4,5-dimethylthiazol-2-yl)-2,5-diphenyltetrazolium bromide (MTT) assay (Laboratory for Bioengineering protocol CB-005). The approximative number of 10 000 cells per well (in 96-well microplates) were seeded and kept in the incubator for 24 h to enable cell adhesion. After the incubation period, the cells were treated with investigated compounds in the concentration range from 0,1 to 500 µM dissolved in DMEM. Cytotoxic effect was evaluated 24 and 72 h from treatment by following the number of survived cells, thus the cell viability. MTT assay is based on spectrophotometric measurement of reduction rate of 3-(4,5-dimethylthiazol-2-yl)-2,5-diphenyltetrazolium bromide (MTT, Acros Organics, 158990010) to purple formazan crystals subsequently dissolved in DMSO (Fisher Chemical, D/4121/PB15) on a microplate reader (Rayto 2100C) at 550 nm. The percentage of the survived (viable) cells was estimated by dividing the absorbance of the treatment with the absorbance of the control (non-treated) cells and multiplied by 100 [47]. As positive controls, Leucovorin and Irinotecan were selected as compounds used in colon cancer treatment.
(§3) Biological activity was the result of two individual experiments, performed in triplicate for each dose. Statistical analyses were determined using the one-way analysis of variance (ANOVA) test for multiple comparisons, SPSS (Chicago, IL) statistical software package (SPSS for Windows, v. 17, 2008). The IC50 values were calculated from the dose curves by a computer program (CalcuSyn). IC50 values represent the half-maximal inhibitory concentration of tested compounds to measure the influence in inhibition of cell growth for 50%. […] At the beginning of the process of selecting the anti-cancer drug candidate, it is necessary to make a rough preselection between the tested substances. In vitro analysis on cancer and healthy cell lines is quantified in different ways, selectivity also. The selectivity index (SI) of tested drugs usually refers to the simple ratio of IC50 values determined for cancer and healthy cells. Also, the SI can be used for the expression of many other examples, such as SI between antibacterial and antiviral effect, discrimination of the drugs effect between many cancer cell lines, etc. In our experimentation, the values greater than ‘1’ indicate selectivity of the tested substance toward cancer cell line.

[3] = system: MRC-5; test: MTT cytotoxicity assay on MRC-5 cells; assay type: cell-based; details: Homo sapiens, MRC5, MRC-5 cell line, read-out: Growth inhibitory effects IC50
Protocol: as §1, §2, §3

SMILES	IC50 [1]	IC50 ([2]; 24 h exposure)	IC50 ([2]; 72 h exposure)	IC50 ([3]; 24 h exposure)	IC50 ([3]; 72 h exposure)	selectivity index (SI) ([2]; after 24 h exposure)	selectivity index (SI) ([2]; after 72 h exposure)	stoichiometric factor (SF) [1]	cytotoxic effect in words (from IC50 values) ([2]; 72 h after treatment)	cytotoxic effect in words (from IC50 values) ([2]; 24 and 72 h exposure, 0,1 to 500 µM)
O=C(N/N=C/c1ccccc1)c1ccccc1 [1a]	> 100 µM	> 500 µM	> 500 µM	> 500 µM	> 500 µM	–	–	–	–	–
O=C(N/N=C/c1ccccc1O)c1ccccc1 [1b]	> 100 µM	249 µM	139 µM	> 500 µM	> 500 µM	>2.01	>3.59	–	–	–
O=C(N/N=C/c1ccc(O)cc1)c1ccccc1 [1c]	> 100 µM	> 500 µM	> 500 µM	> 500 µM	> 500 µM	–	–	–	–	–
COc1cccc(/C=N/NC(=O)c2ccccc2)c1O [1d]	> 100 µM	> 500 µM	66.6 µM	> 500 µM	306 µM	–	4.6	–	–	–
COc1cc(/C=N/NC(=O)c2ccccc2)ccc1O [1e]	31.4 ± 0.9 µM	> 500 µM	> 500 µM	> 500 µM	> 500 µM	–	–	0.4	–	–
COc1cc(/C=N/NC(=O)c2ccccc2)cc(OC)c1O [1f]	17.2 ± 1.1 µM	> 500 µM	> 500 µM	> 500 µM	> 500 µM	–	–	0.7	–	–
O=C(N/N=C/c1ccc(O)cc1O)c1ccccc1 [1g]	> 100 µM	> 500 µM	316 µM	> 500 µM	> 500 µM	–	–	–	–	–
O=C(N/N=C/c1ccc(O)c(O)c1)c1ccccc1 [1h]	2.93 ± 0.1 µM	> 500 µM	> 500 µM	> 500 µM	> 500 µM	–	–	4.3	–	–
CC(Cc1ccc(O)c(O)c1)C(C)Cc1ccc(O)c(O)c1 (stereo not shown) [NDGA, nordihydroguaiaretic acid, reference compound]	1.7 ± 0.1 µM	–	–	–	–	–	–	7.4	–	–
O=c1c(O)c(-c2ccc(O)c(O)c2)oc2cc(O)cc(O)c12 [Quercetin, quercetin, reference compound]	1.9 ± 0.1 µM	–	–	–	–	–	–	6.6	–	–
CCc1c2c(nc3ccc(OC(=O)N4CCC(N5CCCCC5)CC4)cc13)-c1cc3c(c(=O)n1C2)COC(=O)[C@]3(O)CC [irinotecan, Irinotecan, reference compound]	–	> 500 µM	101 µM	> 500 µM	35.2 µM	–	0.35	–	moderate	–
Nc1nc2c(c(=O)[nH]1)N(C=O)C(CNc1ccc(C(=O)N[C@@H](CCC(=O)O)C(=O)O)cc1)CN2 (stereo partly shown) [leucovorin, Leucovorin, reference compound]	–	> 500 µM	> 500 µM	> 500 µM	180 µM	–	<0.36	–	–	no effect

Continued, in another order:

IC50 [1]	SMILES	IC50 ([2]; 24 h exposure)	IC50 ([2]; 72 h exposure)	IC50 ([3]; 24 h exposure)	IC50 ([3]; 72 h exposure)	selectivity index (SI) ([2]; after 24 h exposure)	selectivity index (SI) ([2]; after 72 h exposure)	stoichiometric factor (SF) [1]	cytotoxic effect in words (from IC50 values) ([2]; 72 h after treatment)	cytotoxic effect in words (from IC50 values) ([2]; 24 and 72 h exposure, 0,1 to 500 µM)
> 100 µM	O=C(N/N=C/c1ccccc1)c1ccccc1O [2a]	> 500 µM	> 500 µM	> 500 µM	> 500 µM	–	–	–	–	–
> 100 µM	O=C(N/N=C/c1ccccc1O)c1ccccc1O [2b]	26.9 µM	70.5 µM	> 500 µM	233 µM	>18.59	3.30	–	–	–
> 100 µM	O=C(N/N=C/c1ccc(O)cc1)c1ccccc1O [2c]	> 500 µM	> 500 µM	> 500 µM	> 500 µM	–	–	–	–	–
> 100 µM	COc1cccc(/C=N/NC(=O)c2ccccc2O)c1O [2d]	80.5 µM	26.2 µM	37.9 µM	87.3 µM	–	3.3	–	–	–
20.1 ± 0.9 µM	COc1cc(/C=N/NC(=O)c2ccccc2O)ccc1O [2e]	> 500 µM	> 500 µM	> 500 µM	> 500 µM	–	–	0.6	–	–
6.5 ± 0.4 µM	COc1cc(/C=N/NC(=O)c2ccccc2O)cc(OC)c1O [2f]	> 500 µM	> 500 µM	> 500 µM	> 500 µM	–	–	1.9	–	–
